Data published in article PMC7300217, “Surfactin Like Broad Spectrum Antimicrobial Lipopeptide Co-produced With Sublancin From Bacillus subtilis Strain A52: Dual Reservoir of Bioactives” (Frontiers in Microbiology, 2020).

Columns and labels:
S. aureus MTCC 1430 [1] = test: MIC, microtiter plate dilution assay; type: cell-based, Staphylococcus aureus; conditions: 5 × 10^5 CFU/ml, 37°C, OD600 after 24 h, triplicate
Experimental: (§1) The antimicrobial activity was tested by well diffusion assay as mentioned earlier ([Singh et al., 2014]). Strain A52 was grown for 24 h in 500 ml of nutrient broth (NB, Hi-media, India) using 1000 ml flask and subsequently cells were removed by centrifugation (10,000 rpm for 15 min at 4°C). Supernatant was filtered through 0.22 μm filter (Millipore, United States) to obtain cell-free fermented broth (CFB) that was used for antimicrobial assay (50 μl) against various indicator strains and the activity was measured as diameter of inhibition zone. […]
(§2) The minimum inhibitory concentration (MIC) of HPLC purified peptides was evaluated by using microtiter plate dilution assay. […] OD was measured at 600 nm after 24 and 48 h for bacteria and yeast, respectively, using ELISA microplate reader (Thermo, United States). MIC against phytopathogenic fungi was determined using 96-well microtiter plate assay ([Kaur et al., 2016]). […] The microplates were incubated at 25°C and readings were recorded at 600 nm after 48 h. […]

E. coli MTCC 1610 = test: MIC, microtiter plate dilution assay; type: cell-based, Escherichia coli; conditions: 5 × 10^5 CFU/ml, 37°C, OD600 after 24 h, triplicate
Experimental: as §1, §2

[2] = pH stability, residual antimicrobial activity; type: physicochemical; conditions: for Residual activity (%), pH 2.0: pH 2.0 (10 mM HCl or NaOH)
Experimental: Sensitivity of purified peptides toward temperature, pH, and non-specific proteases was confirmed by performing bioassays. The pH stability was determined by adjusting the pH 2.0–12.0 of peptide aliquots (using 10 mM HCl or NaOH) and incubating for 4 h at room temperature. Samples were neutralized to pH 7.0 before processing for antimicrobial assay. To determine temperature susceptibility, peptides were incubated at different temperatures ranging from 37 to 100°C for 1 h and 121°C for 15 min and residual antimicrobial activity was determined at RT by well diffusion assay. Proteolytic enzymes trypsin and proteinase K (Sigma, United States) were used at three different concentrations (0.1, 1.0, and 5.0 mg/ml) to observe their effect on the peptide. The enzyme solutions were prepared in 50 mM phosphate buffer (pH 7.0). All reactions were performed at 37°C for 6 h followed by deactivation of enzyme by heating the solution in boiling water for 5 min before performing the activity assay.

[3] = tested on: A. brassicicola MTCC 2102 spores; test: Effect on fungal spores, phase contrast microscopy; type: cell-based, Alternaria brassicicola
Experimental: (§3) The effect of peptide on cell membrane was determined by scanning electron microscopy (SEM) and transmission electron microscopy (TEM) after treatment with AMPs. For this, test strains S. aureus MTCC 1430 and C. albicans MTCC 183 were cultured to mid-log phase in respective media. The cells were harvested by centrifugation at 10,000 × g for 10 min, washed thrice with 1X PBS, and re-suspended to adjust an OD600 of 0.2. […] Following the incubation, cells were processed for SEM and TEM as described ([Raje et al., 2006]). The specimens were completely dried using freeze drier, coated with gold, and visualized under a scanning electron microscope (ZEISS, Germany). For TEM (JEOL, JEM 2100, United States), cells were treated with peptide, washed, and subjected to negative stain 0.1% sodium phosphotungstate (Sigma, United States) for visualization. Effect of A52 lipopeptide on fungal spore was observed through a phase contrast microscope (Nickon H600L, Japan).

S. aureus MTCC 1430 [4] = test: TLC overlay bioautography; type: cell-based, Staphylococcus aureus; conditions: ∼10^6 cells/ml, 24 h at 37°C
Experimental: Purified antimicrobial peptides were analyzed on TLC plates (Silica gel 60 F254, Merck, Germany) and used to determine the purity and antimicrobial activity of the compound by bioautographic assay ([Zheng et al., 2005]). About 50–60 μl of the peptide solution (100 μg/ml concentration) was loaded onto individual TLC silica gel plates in duplicates and were developed using a solvent system containing chloroform: […]: water (65:12:4 v/v). Subsequently, each TLC plate was dried, cut into two vertical parts, and one part of the TLC was used for direct detection of antimicrobial activity by overlaying on NA plate containing indicator strain (S. aureus MTCC 1430, ∼10^6 cells/ml). After allowing for 1 h of diffusion at 4°C, the TLC strip was removed and plates were incubated for 24 h at 37°C. The other part of TLC strip (5–10 μl of the peptide solution spot) was sprayed with ninhydrin and phosphomolybdic acid as a staining reagent to detect the presence of peptides and lipid moieties, respectively. Similarly, peptides were electrophoresed on 16% Tricine-SDS-PAGE and used for in-gel activity assay as described earlier ([Baindara et al., 2016]). S. aureus MTCC 1430 (∼10^6 cells/ml) was used as an indicator strain in assay.

S. aureus MTCC 1430 [5] = test: Transmission electron microscopy of treated cells; type: cell-based, Staphylococcus aureus; conditions: 2X and 5X MIC, 37°C overnight
Experimental: as §3

Substance: Glu^1-Leu/Ile^2-Leu^3-Val^4-Asp^5-Leu^6-Leu/Ile^7 and a β-OH hexadecane fatty acid chain (lariat or depsi) [Lipopeptide A52, cyclic surfactin-like lipopeptide, 7 amino acids and C16 β-hydroxy fatty acid, 1061.9 Da, from B. subtilis strain A52]
- MIC value, S. aureus MTCC 1430 (S. aureus MTCC 1430 [1]): 4 µg/mL
- MIC value, E. coli MTCC 1610 (E. coli MTCC 1610): 6 µg/mL
- Residual activity (%), pH 2.0 ([2]; 4h/ 25°C, neutralized to pH 7.0 before antimicrobial assay, listed as Lipopeptide): Nil
- Residual activity (%), pH 2.0 ([2]; 4h/ 25°C, neutralized to pH 7.0 before antimicrobial assay, listed as surfactin-like lipopeptide): complete loss in activity
- Residual activity (%), pH 4.0 ([2]; pH 4.0 (10 mM HCl or NaOH), 4h/ 25°C, neutralized to pH 7.0 before antimicrobial assay): 100%
- Residual activity (%), pH 6.0 ([2]; pH 6.0 (10 mM HCl or NaOH), 4h/ 25°C, neutralized to pH 7.0 before antimicrobial assay): 100%
- Residual activity (%), pH 7.0 ([2]; pH 7.0, 4h/ 25°C): 100%
- Residual activity (%), pH 8.0 ([2]; pH 8.0 (10 mM HCl or NaOH), 4h/ 25°C, neutralized to pH 7.0 before antimicrobial assay): 100%
- Residual activity (%), pH 10.0 ([2]; pH 10.0 (10 mM HCl or NaOH), 4h/ 25°C, neutralized to pH 7.0 before antimicrobial assay): 100%
- Residual activity (%), pH 12.0 ([2]; pH 12.0 (10 mM HCl or NaOH), 4h/ 25°C, neutralized to pH 7.0 before antimicrobial assay): Nil
- lysis of fungal spores [3]: able to lyse the spores
- inhibition in TLC based overlay bioautographic assay (S. aureus MTCC 1430 [4]): inhibited
- cell morphology in TEM images (S. aureus MTCC 1430 [5]): wall rupturing and cellular lysis
